Measured values: US20110009351A1, “SCREENING ASSAY TO IDENTIFY CORRECTORS OF PROTEIN TRAFFICKING DEFECTS” (Traffick Therepeutics Inc., priority 2007, published 2011)
Where a name gives a salt, the structure may show the parent alone.

Target: ΔF508-CFTR (Homo sapiens, UniProt P13569, DEL508-508)
Assay: iodide efflux assay in CFBE41o− airway epithelial cells
Type: cell-based
Parameters: expressed in transfected cells; host or cells: CFBE41o- (ΔF508/ΔF508) transduced with ΔF508-CFTR, TranzVector lentivirus, provided by J. P. Clancy
Settings: compared with BHK
Description: Experiments were performed by hand or with a robotic liquid handling system (BioRobot 8000, Qiagen, USA) using Qiagen 4.1 software. Cells were cultured in 24-well plates until they reached confluence in order to perform parallel experiments and comparison analysis. After treatment (or not) with a test compound, medium in each well was replaced with 1 ml of iodide loading buffer (in mM: 136 NaI, 3 KNO3, 2 Ca(NO3)2, 11 glucose and 20 Hepes pH 7.4) for 1 hour at 37° C. to permit the I′ to reach equilibrium. […] The loss of intracellular I^− was determined by removing the medium and replacing it with fresh efflux buffer every 1 min for up to 11 min. […] The iodide concentration of each aliquot was determined using an iodide-sensitive electrode (Orion Research Inc., Boston, Mass., USA or Ecomet) and converted to iodide content (i.e. the amount of iodide released during the 1 min interval). […]
Iodide effluxes were performed using a robotic liquid handling system (BioRobot 8000, Qiagen, Valencia, Calif.) and Qiagen 4.1 software. […] Efflux was measured by replacing the medium with 300 μl fresh efflux buffer at 1 min intervals for up to 11 min. […] Iodide concentration was measured in each aliquot (300 μl) using an iodide-sensitive electrode (Orion Research Inc., Boston, Mass.). […]

Chain of ΔF508-CFTR (P13569 with tags, fused parts or gaps DEL508-508): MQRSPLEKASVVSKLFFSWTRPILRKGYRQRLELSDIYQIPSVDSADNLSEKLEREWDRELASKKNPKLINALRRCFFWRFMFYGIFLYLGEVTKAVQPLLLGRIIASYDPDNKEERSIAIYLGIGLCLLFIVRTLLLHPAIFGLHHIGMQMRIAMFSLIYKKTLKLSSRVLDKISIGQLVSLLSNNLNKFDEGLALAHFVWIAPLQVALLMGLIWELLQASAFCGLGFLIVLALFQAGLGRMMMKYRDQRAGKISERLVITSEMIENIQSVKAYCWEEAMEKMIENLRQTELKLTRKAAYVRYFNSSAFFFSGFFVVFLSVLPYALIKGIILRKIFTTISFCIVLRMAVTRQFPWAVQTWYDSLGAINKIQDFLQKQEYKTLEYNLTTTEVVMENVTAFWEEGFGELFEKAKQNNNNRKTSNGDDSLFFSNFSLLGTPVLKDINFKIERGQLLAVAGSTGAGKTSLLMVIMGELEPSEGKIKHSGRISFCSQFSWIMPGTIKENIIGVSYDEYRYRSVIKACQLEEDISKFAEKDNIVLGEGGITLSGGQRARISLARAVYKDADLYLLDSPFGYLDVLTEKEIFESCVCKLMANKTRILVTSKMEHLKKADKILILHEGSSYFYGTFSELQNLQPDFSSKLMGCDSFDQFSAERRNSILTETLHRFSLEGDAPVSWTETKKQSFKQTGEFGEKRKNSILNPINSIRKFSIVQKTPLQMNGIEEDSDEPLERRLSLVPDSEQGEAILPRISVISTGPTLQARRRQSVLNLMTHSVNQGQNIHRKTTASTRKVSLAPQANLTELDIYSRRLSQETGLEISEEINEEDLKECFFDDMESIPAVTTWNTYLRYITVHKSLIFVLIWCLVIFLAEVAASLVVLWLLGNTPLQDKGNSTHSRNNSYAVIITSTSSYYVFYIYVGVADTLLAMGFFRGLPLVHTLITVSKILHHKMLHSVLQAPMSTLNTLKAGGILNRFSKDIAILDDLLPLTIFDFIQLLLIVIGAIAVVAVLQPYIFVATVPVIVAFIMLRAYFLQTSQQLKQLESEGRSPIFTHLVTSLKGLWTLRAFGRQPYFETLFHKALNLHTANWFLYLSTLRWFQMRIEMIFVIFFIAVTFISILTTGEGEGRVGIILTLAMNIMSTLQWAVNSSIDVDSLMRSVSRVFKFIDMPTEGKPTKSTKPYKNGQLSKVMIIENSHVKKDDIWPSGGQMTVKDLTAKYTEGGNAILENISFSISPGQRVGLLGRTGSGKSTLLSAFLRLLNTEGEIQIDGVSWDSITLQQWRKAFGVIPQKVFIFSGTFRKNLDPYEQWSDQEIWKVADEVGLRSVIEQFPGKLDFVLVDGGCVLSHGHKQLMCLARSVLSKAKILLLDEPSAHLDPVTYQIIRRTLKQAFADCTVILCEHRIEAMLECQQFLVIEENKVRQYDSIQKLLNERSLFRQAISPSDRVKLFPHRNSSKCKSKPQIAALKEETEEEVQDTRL

SMILES: O=C(OCC(O)CO)c1ccccc1Nc1ccnc2cc(Cl)ccc12 (stereo not shown) [Glafenine hydrochloride, 2-[(7-chloro-4-quinolinyl)amino]benzoic acid 2,3-dihydroxypropyl ester]
- rescue of iodide efflux: more striking
